# Literature values, collected in patent US12728162B2, “Methods of treating lung cancer with a PD-1 axis binding antagonist, a platinum agent, and a topoisomerase II inhibitor” (Genentech, Inc., priority 2018, dated 2026).
smiles,measurement,setting,value
"[NH3+][Pt-2]1([NH3+])[O]C(=O)C2(CCC2)C(=O)[O]1 [Carboplatin, platinum, diammine [1,1-cyclobutanedicarboxylato (2-)-O,O′]—, (SP-4-2)]",solubility in organic solvents,"ethanol, acetone, and dimethylacetamide",virtually insoluble
same,solubility in water,water,approximately 14 mg/mL
